Key:
[1] = tested on: angiotensin I-converting enzyme (ACE); experiment: ACE inhibitory activity assay (fluorometric ACE activity assay kit); format: biochemical
Experimental: The ACE inhibitory activity assay was performed following the method outlined by Batista et al., with slight modifications, using a fluorometric angiotensin I-converting enzyme (ACE) activity assay kit from Sigma-Aldrich (catalog number CS0002), Burlington, Massachusetts, USA. In summary, 10 µ L of the sample (1 mg/mL for the peptide sample and 50 µg/mL for ramipril) was combined with 40 µ L of the ACE solution (CS0002B) in 96-well flat-bottom black plates at 37 °C for 5 min. Next, 50 µ L of the substrate solution (CS0002C) was added to this mixture to initiate the reaction. A fluorescence multiwell plate reader was used to monitor the changes in fluorescence. The sample’s fluorescence was measured every min for 5 min, with excitation at 320 nm and emission at 405 nm. All reagents, except the test sample, were prepared to assess the ACE positive control activity. A kit standard solution (CS0002D) was diluted with assay buffer (CS0002A) to create different concentrations (nmol) of the standard solution, allowing generation of a standard curve. The slope of the standard curve (RFU/nmol) and the slope of the sample kinetic curve were utilized to calculate the ACE activity using the following equation (3):
ACEactivitynmol/min=Slopesample/Slopestandard×DF (3)
Where Slopesample refers to the slope of the blank-subtracted sample curve (RFU/min), Slopestandard refers to the slope of the blank-subtracted standard curve (RFU/nmol), DF is the dilution factor, and 0.1 nmol/min is equivalent to […].
In this study, the results of ACE inhibitory activity are expressed as percentages. The ACE inhibitory activity (%) was calculated using the following equation (4):
ACEinhibitoryactivity%=ACEPC–ACES/ACEPC×100 (4)
Where ACEPC represents the ACE activity of the positive control, and ACES denotes the ACE activity of the sample.

[2] = DPPH radical scavenging assay; format: biochemical; details: supplement tables; for DPPH, mean±SD: n = 3
Experimental: The DPPH radical scavenging activity of the sample was assessed following a modified protocol based on a previous study. In each well of a 96-well plate, 10 μL of the sample was added, followed by 190 μL of 0.1 mM DPPH solution in 70% ethanol. The mixture was then incubated at room temperature in the dark for 30 min. After the incubation period, the absorbance of the mixture was measured at 517 nm. The DPPH radical scavenging activity was calculated using the following equation (1):
DPPHradicalscavengingactivity%=Acontrol–Asample/Acontrol×100 (1)
In this equation, Acontrol represents the absorbance of a control solution containing all reagents except for the test samples, while Asample is the absorbance of the mixture (the sample combined with 0.1 mM DPPH). To determine the Trolox equivalent antioxidant capacity (TEAC), a Trolox standard curve was utilized. The results were expressed as millimoles of Trolox equivalents per milligram of protein (mM TE/mg protein).

[3] = ABTS radical scavenging assay; format: biochemical; details: supplement tables; for ABTS, mean±SD: n = 3
Experimental: The ABTS radical scavenging activity of the sample was measured using a method adapted from Mirzaei et al.. The ABTS radical was generated by mixing 7 mM ABTS with 2.45 mM potassium persulfate in a 1:1 ratio and incubating the mixture in the dark at room temperature for 12 to 16 h. The resulting solution was then diluted to achieve an absorbance of 0.74 ± 0.03 at 734 nm, using deionized water for adjustments. Next, 10 μL of the sample was added to 190 μL of the ABTS solution. The mixture was incubated in the dark for 7 min, after which the absorbance was measured at 734 nm. The ABTS radical scavenging activity (%) was calculated using the following equation (2):
ABTSradicalscavengingactivity%=Acontrol–Asample/Acontrol×100 (2)
In this equation, Acontrol refers to the absorbance of the control solution (which contains all reagents except the test samples), while Asample refers to the absorbance of the mixture containing the sample and the ABTS solution. To determine the Trolox equivalent antioxidant capacity (TEAC), a Trolox standard curve was used, and the results were expressed as millimoles of Trolox equivalents per milligram of protein (mM TE/mg protein).

[4] = Ferric reducing antioxidant power (FRAP) assay; format: biochemical
Experimental: The FRAP assay was conducted following the method outlined by Rumpf et al.. The FRAP solution was prepared by mixing 300 mM acetate buffer (pH 3.6), 10 mM TPTZ (2,4,6-Tris(2-pyridyl)-s-triazine) in 40 mM hydrochloric acid, and 20 mM FeCl3 in a ratio of 10:1:1. In a 96-well plate, 10 μL of the sample was combined with 190 μL of the FRAP solution and incubated in the dark for 15 min. The absorbance of the mixture was then measured at 593 nm. FeSO4 was used to create the standard curve, and the results were expressed as millimoles of FeSO4 equivalent per milligram of protein (mM FeSO4/mg protein).

RAW 264.7 [5] = experiment: Anti-inflammation assay: released NO in LPS-stimulated RAW 264.7 (Griess); format: cell-based, Murine; details: then 1 µg/mL LPS 24 h; for Released NO: peptide 10 µg/mL 1 h; for Released NO, mean±SD: peptide 10 µg/mL pre-treatment 1 h, Griess reagent, n = 3
Experimental: (§1) Murine macrophage cells (RAW 264.7; ATCC TIB-71™) were cultured in Dulbecco’s Modified Eagle’s Medium (DMEM) that was supplemented with 10% heat-inactivated fetal bovine serum (FBS) and 1% antibiotic solution. Colorectal adenocarcinoma cells (CaCo-2; ATCC HTB 37™) were cultured in Eagle’s Minimum Essential Medium (EMEM), also supplemented with 10% heat-inactivated FBS and 1% antibiotic solution. Both cell types were maintained in a humidified incubator with 5% CO2. The cell culture medium was refreshed every three days.
The anti-inflammation assay was conducted following the method described by Barzkar et al. with slight modifications. RAW 264.7 (1 x 10^5 cells) was seeded into a 96-well plate to allow for cell attachment. After 24 h, the cells were pre-treated with fresh medium containing peptide samples at a concentration of 10 µg/mL for 1 h. Subsequently, the treated cells were stimulated with 1 µg/mL lipopolysaccharide (LPS) for an additional 24 h. Unstimulated cells were included as a negative control. At the end of the treatment period, the conditioned medium was collected for the determination of released nitric oxide (NO). Griess’s reagent (Promega) was utilized to measure the NO concentration, following the manufacturer’s instructions. A NO calibration curve was generated to quantify the released NO in the conditioned medium.

RAW 264.7 [6] = experiment: Cytotoxicity assessment (MTT); format: cell-based, Murine; details: peptide 10 µg/mL, 72 h
Experimental: as §1
Cytotoxicity assessment was performed following the method described by Yang et al., with slight modifications. RAW 264.7 was seeded with 1 x 10^5 cells in a 96-well plate with an appropriate cell culture medium. After allowing the cells to attach, the medium was replaced with a fresh cell culture medium containing the peptide samples at a concentration of 10 µg/mL. The treated cells were incubated for an additional 72 h. At the designated time, fresh medium was added, which included 3-(4,5-dimethylthiazol-2-yl)-2,5-diphenyltetrazolium bromide (MTT) at a concentration of 0.5 mg/mL. After 3 h, formazan crystals were observed. The medium was then removed, and the crystals were dissolved in 100% dimethyl sulfoxide (DMSO). A microplate reader (Synergy HTX; Biotek, Multi-Mode Reader, Winooski, VT, USA) was utilized to measure the absorbance at 570 nm (measurement wavelength) and 630 nm (reference wavelength). The percentage of cell viability was calculated relative to untreated cells using the following equation (5):
Cellviability%=ODtreatment–ODblank/ODuntreated–ODblank×100 (5)
Where ODtreatment is the absorbance of the treated sample, ODuntreated is the absorbance of the untreated sample, and ODblank is the absorbance from wells without treated and untreated samples.

[7] = 10 µL sample + 190 µL FRAP solution, 15 min dark, 593 nm, FeSO4 standard curve, mean ± SD, n = 3, SD
[8] = peptide sample 1 mg/mL, 37 °C, fluorescence ex 320/em 405 nm, mean ± SD, n = 3, SD
[9] = peptide sample 1 mg/mL, replicate 1
[10] = peptide sample 1 mg/mL, replicate 2
[11] = peptide sample 1 mg/mL, replicate 3

| Compound | DPPH, mean±SD [2] | DPPH ([2]; replicate 1) | DPPH ([2]; replicate 2) | DPPH ([2]; replicate 3) | ABTS, mean±SD [3] | ABTS ([3]; replicate 1) | ABTS ([3]; replicate 2) | ABTS ([3]; replicate 3) | FRAP ([4]; supplement tables, replicate 1) | FRAP ([4]; supplement tables, replicate 2) | FRAP ([4]; supplement tables, replicate 3) | ACE inhibitory activity [1, 9] | ACE inhibitory activity [1, 10] | ACE inhibitory activity [1, 11] | Released NO (RAW 264.7 [5]; replicate 1) | Released NO (RAW 264.7 [5]; replicate 2) | Released NO (RAW 264.7 [5]; replicate 3) | Released NO, mean±SD (RAW 264.7 [5]) | Cell viability (RAW 264.7 [6]; replicate 1) | Cell viability (RAW 264.7 [6]; replicate 2) | other results |
| --- | --- | --- | --- | --- | --- | --- | --- | --- | --- | --- | --- | --- | --- | --- | --- | --- | --- | --- | --- | --- | --- |
| CCOC(=O)[C@H](CCc1ccccc1)N[C@@H](C)C(=O)N1[C@H](C(=O)O)C[C@@H]2CCC[C@@H]21 [Ramipril, ramipril, reference compound] |  |  |  |  |  |  |  |  |  |  |  |  |  |  |  |  |  |  |  |  | ACE inhibitory activity, mean±SD ([1]; ramipril 50 µg/mL, mean ± SD, n = 3, SD): 23.23±0.44^G %; ACE inhibitory activity, mean±SD ([1]; ramipril 50 µg/mL, mean ± SD, n = 3, listed as ramipril, SD): 23.23 ± 0.44%; ACE inhibitory activity ([1]; ramipril 50 µg/mL, replicate 1): 22.79%; ACE inhibitory activity ([1]; ramipril 50 µg/mL, replicate 2): 23.23%; ACE inhibitory activity ([1]; ramipril 50 µg/mL, replicate 3): 23.67% |
| EIILIPMF [P3, synthesized peptide identified from jellyfish fraction PUR20C] | 2.93 TE/mg protein | 2.84 TE/mg protein | 2.58 TE/mg protein | 3.37 TE/mg protein | 3.17 TE/mg protein | 3.31 TE/mg protein | 2.71 TE/mg protein | 3.51 TE/mg protein | 9.31 mM FeSO4/mg protein | 9.31 mM FeSO4/mg protein | 9.10 mM FeSO4/mg protein | 33.58% | 33.87% | 34.16% | 37.58 µM | 35.17 µM | 37.24 µM | 36.66 ± 1.30 µM | 75.57% | 75.92% | FRAP [4, 7]: 9.24±0.12 mM FeSO4/mg protein; ACE inhibitory activity, mean±SD [1, 8]: 33.87±0.28^E %; Cell viability (RAW 264.7 [6]; replicate 3): 75.39% |
| LMFMAVAFF [P12, synthesized peptide identified from jellyfish fraction PUR20C] | 2.75 TE/mg protein | 2.58 TE/mg protein | 2.58 TE/mg protein | 3.11 TE/mg protein | 0.64±0.30^M TE/mg protein | 0.90 TE/mg protein | 0.30 TE/mg protein | 0.70 TE/mg protein | 16.26 mM FeSO4/mg protein | 17.31 mM FeSO4/mg protein | 16.68 mM FeSO4/mg protein | 49.61% | 43.60% | 49.33% | 36.89 µM | 38.62 µM | 40.00 µM | 38.50±1.55^B µM | 76.97% | 73.98% | FRAP [4, 7]: 16.75±0.52^B mM FeSO4/mg protein; ACE inhibitory activity, mean±SD [1, 8]: 47.51±3.39^D %; Cell viability (RAW 264.7 [6]; replicate 3): 74.86% |
| NFTVLCDSLE [P10, synthesized peptide identified from jellyfish fraction PUR20C] | 45.99±1.10^B TE/mg protein | 46.34 TE/mg protein | 44.75 TE/mg protein | 46.87 TE/mg protein | 98.00±0.50^G TE/mg protein | 97.47 TE/mg protein | 98.07 TE/mg protein | 98.47 TE/mg protein | 20.05 mM FeSO4/mg protein | 21.10 mM FeSO4/mg protein | 18.36 mM FeSO4/mg protein | 11.25% | 9.82% | 8.39% | 35.86 µM | 35.17 µM | 38.27 µM | 36.43 µM | 85.41% | 84.35% | inhibition [1, 8]: 9.82 ± 1.43%; Cell viability, mean±SD (RAW 264.7 [6]; relative to untreated cells, mean ± SD, n = 3, SD): 85.35%; Cell viability (RAW 264.7 [6]; replicate 3): 86.29% |
